According to US6376427B1, “Herbicidal compositions” (Sumitomo Chemical Company, Limited, priority 1998, dated 2002):

Legend:
[1] = test system: giant foxtail; experiment: Test Example 1: post-emergence foliar spray, herbicidal activity; assay type: in vivo, giant foxtail (Setaria faberi); settings: sprayed on 23-day plants, examined 5 days after application, index 0 to 10
Procedure: (§1) Plastic pots each having an area of 26.5×19cm^2 and a depth of 10 cm were filled with upland soil, and then seeded with wheat and giant foxtail. The wheat was grown for 14 days and t he giant foxtail was grown for 23 days in a greenhouse. An emulsifiable concentrate compound A which had been obtained by well mixing 10 parts of compound A, 14 parts of polyoxyethylene styryl phenyl ether, 6 parts of calcium dodecylbenzenesulfonate, 35 parts of xylene, and 35 parts of cyclohexanone, an emulsifiable concentrate of flufenacet which had been obtained by well mixing 10 parts of flufenacet, 14 parts of polyoxyethylene styryl phenyl ether, 6 parts of calcium dodecylbenzenesulfonate, 35 parts of xylene, and 35 parts of cyclohexanone, and a mixture of the emulsifiable concentrate of compound A and the emulsifiable concentrate of flufenacet were independently diluted in their prescribed amounts with water. Each dilution was uniformly sprayed over the plants with a small sprayer. After the application, the plants were grown in the greenhouse for 5 days, and the herbicidal activity and safety to wheat were then examined.

[2] = test system: wheat; experiment: Test Example 1: safety to wheat (phytotoxicity); assay type: in vivo, wheat (Triticum aestivum); settings: dosage 10 g/ha; sprayed on 14-day wheat; examined 5 days after application
Procedure: as §1

[3] = test system: giant foxtail; experiment: Test Example 2: post-emergence foliar spray, herbicidal activity; assay type: in vivo, giant foxtail (Setaria faberi); settings: sprayed on 22-day plants, examined 5 days after application, index 0 to 10
Procedure: (§2) Plastic pots each having an area of 26.5×19 cm^2 and a depth of 7 cm were filled with upland soil, and then seeded with soybean, corn and giant foxtail. The corn was grown for 13 days, and the soybean and giant foxtail were grown for 22 days in a greenhouse. An emulsifiable concentrate compound A which had been obtained by well mixing 10 parts of compound A, 14 parts of polyoxyethylene styryl phenyl ether, 6 parts of calcium dodecylbenzenesulfonate, 35 parts of xylene, and 35 parts of cyclohexanone, an emulsifiable concentrate of flufenacet which had been obtained by well mixing 10 parts of flufenacet, 14 parts of polyoxyethylene styryl phenyl ether, 6 parts of calcium dodecylbenzenesulfonate, 35 parts of xylene, and 35 parts of cyclohexanone, and a mixture of the emulsifiable concentrate of compound A and the emulsifiable concentrate of flufenacet were independently diluted in their prescribed amounts with water. Each dilution was uniformly sprayed over the plants with a small sprayer. After the application, the plants were grown in the greenhouse for 5 days, and the herbicidal activity and safety to soybean and corn were then examined.

[4] = test system: soybean; experiment: Test Example 2: safety to soybean (phytotoxicity); assay type: in vivo; settings: dosage 40 g/ha; sprayed on 22-day soybean; examined 5 days after application
Procedure: as §2

[5] = test system: corn; experiment: Test Example 2: safety to corn (phytotoxicity); assay type: in vivo; settings: dosage 40 g/ha; sprayed on 13-day corn; examined 5 days after application
Procedure: as §2

| Structure (SMILES) | Herbicidal activity Giant foxtail ([1]; dosage 10 g/ha) | Phytotoxicity Wheat [2] | Herbicidal activity Giant foxtail ([3]; dosage 40 g/ha) | Phytotoxicity Soybean [4] | Phytotoxicity Corn [5] | Herbicidal activity Giant foxtail ([1]; dosage 240 g/ha) | Herbicidal activity Giant foxtail ([3]; dosage 400 g/ha) |
| --- | --- | --- | --- | --- | --- | --- | --- |
| CCOC(=O)COc1cc(-n2ncc(C(F)(F)F)c(C)c2=O)c(F)cc1Cl [Compound A] | 3 | No harm | 4 | No harm | No harm | – | – |
| CC(C)N(C(=O)COc1nnc(C(F)(F)F)s1)c1ccc(F)cc1 [Flufenacet, 4-fluoro-N-isopropyl-2-(5-trifluoromethyl-,1,3,4-thiadiazol-2-yloxy)acetanilide, reference compound] | – | – | – | – | – | 2 | 2 |
